Results published in patent US6077872A (priority 1998, dated 2000).
“Also recorded” adds a separate entry of the source. Where two headings read alike, the source gives them in different places.

What was measured:
preschool children = details: for children having normal BMDs: groups I and II
Experimental: Seventy 3-6 years old healthy children whose bone mineral density were medium-lower at a central kindergarten in the suburban county of Beijing were selected as subjects, wherein there are 13 boys and 57 girls. All were healthy children who didn't have any metabolic diseases, liver or kidney diseases, bone wounds and abnormal diseases.
Double blind method was employed during the observation. Every person was administered calcium preparation or placebo twice a day in a dosage of 1 bag each time. […] Group IV, established as blank-control group, was administered placebo which didn't contain calcium. All the above oral preparations were provided by Beijing Juneng Asian-Pacific Life Science Research Center.
(1) Bone mineral density was measured before the test and 1.5 months and 3 months later after the administration of Ca supplements.
The bone mineral density of radius in non-preferred hand was measured at the 1/3 point near the farther-end by a Model BMD400 Single-Photon absorptiometry produced conjointly by Institute of Atomic Energy, Ministry of Nuclear Industry, China and Institute of Broadcasting, Beijing, to obtain mean mineral bone density (BMD, g/cm^2). Each point was scanned twice with a scanning speed of 0.5 mm/sec.
All data was analyzed with a SAS statistical software package.

[1] = tested on: castrated male rats with osteoporosis; details: for serum Ca: model 1.80 ± 0.37; for serum P: model 2.03 ± 0.48; for AKP level in serum (in Bessey-Loury unit): model 96.7 ± 26.4
Experimental: Serum Ca, P and AKP were measured by a 4010 Automatic Biochemical Analyzer. Serum Ca was determined by calorimetric method using methylthymol blue. Serum P was determined by Mono-Reagent Method. Alkaline phosphatase was determined by method of disodium p-nitrophenylphosphonate (AKP) The tartaric-resistant acidic phosphatase (Tr-ACP) mineral was determined by Piedra procedure. All above reagent-box were available from the Clinical Chemicals Sub-plant of Beijing Chemical Plant.
The pure synthetic low-calcium diet and apparatus used in this test were the same as in test II.

[2] = tested on: ovariectomized rats with osteoporosis; details: for Y (flexibility, tenacity): model-control 4.0 ± 1.1; for P (maximum of force at yielding point, femur strength): model-control 6.7 ± 1.2; for S (work to yield or break femur): model-control 11.3 ± 4.7
Experimental: (§1) Female rats at the age of 3 months were excised of bilateral ovaries under sterilized condition, and were then fed low-calcium diet and offered with deionized water for 75 days, thus made an osteoporosis model.
Seventy healthy rats were selected and divided randomly into five groups of 14 rats. […] Group 1-5 were administered one time per day and 6 times per week and were also fed low-calcium diet and de-ionized water. The test period was 75 days. When the test was finished, rats were killed by bleeding from bilateral thigh arteries, the separated serum was used for measurement of biochemical parameters such as Ca, P, and AKP and Tr-ACP levels in serum. The bilateral femurs of rats were stripped off and stored in refrigerator. After the measurement of the bone mineral density, the left femur was stored for analysis of biomechanical characteristics. The right femur was stored for analysis of Ca content in femur.
(§2) Three-point bending test was done on the fresh femur iced in refrigerator with a Model WD-1 Electron Universal Test Machine under the following conditions: a span of 2.5 cm, a 25 kg sensor (1/50), a speed of 2 mm/minute. The function of load versus flexibility was recorded by a finction recorder, wherein P represented the maximum of force at yielding point, Y was flexibility indicating the tenacity of materials. K, as the rate of slope, was a rigidity parameter of materials and was associated with the degree of calcification in bone mechanics. S stood for the work to yield or break femur.

in vivo = details: rat, in vivo
Text: (2) apparatus: Model WFX-1B Spectrophotometer of Atomic Absorption was produced by The Second Optical Apparatus Factory of Beijing, 83114; P-E 3030 Spectrophotometer of Atomic Absorption was produced by Perkin-Elmer Corp.,USA;DT-100 Single-Pan Balance (1/10^4) was produced by Beijing Optical Apparatus Factory; TJ-6 Centrifuge was produced by Beckman, USA; Model MVS-1 Vortex Mixer was produced by Beijing Beide Scientific Apparatus and Materials Co. Ltd.
Twelve hours after the animals had been fasted, 0.5 mL plasma was sampled by excising eyeballs. The plasma was established as the blank group. Then rats were administered agents once in an amount of 20 mL/kg body weight by pouring into the stomach. 0.5 mL plasma was sampled by taking from eyeballs 0.25,0.5,1,1.5,2,3,4,6,8,12 and 16 hours later after the administration. […] The concentration of calcium was measured by a Model WFX-1B Spectrophotometer of Atomic Absorption.

[3] = tested on: ovariectomized rats with osteoporosis; experiment: Test II: dry femur weight, ash weight and calcium content in ovariectomized rats; details: for ash weight: model-control 282.3 ± 30.5; for calcium content: model-control 341.9 ± 43.9; for dry femur weight: model-control 493.4 ± 28.1
Experimental: as §1
Female 3-month-aged rats which had been excised of bilateral ovaries under sterilized condition were fed for a week until their wound was cured. Seventy healthy rats were selected and divided randomly into five groups of 14 rats. […] Group 1-5 were administered one time per day and 6 times per week and were also fed low-calcium diet and de-ionized water. The test period was 75 days. […] The bilateral femurs of rats were stripped off and stored in refrigerator. […] The right femur was stored for analysis of Ca content in femur.
(§3) After pulled off soft tissue, the right femur was dried for 5 hours in oven at the temperature of 120° C. until its weight kept a constant (dry weight), then the product was baked for 6 hours in muffle furnace at the temperature of 800° C. until the weight of the product kept a constant which was the ash weight, namely the total amount of inorganic salts. After part of the ash was resolved in dilute hydrochloride, the calcium content of ash was measured by the method of EDTA titration. All data was expressed as X±SD(n). The significance of differences between groups were assessed using the "T-test" method of two groups of small specimen.

[4] = tested on: castrated male rats with osteoporosis; details: for K (calcification of bone): model-control 1.50 ± 0.26; for P (strength of femur): model-control 5.2 ± 1.1; for Y (flexibility, tenacity): model-control 8.0 ± 1.2; for S (work to break the bone): model-control 24.5 ± 7.5
Experimental: as §2
In this test, chemicals were the saine as in test II, animals were male Wistar rats each weighing 150±10 g and were provided by Animal Center of the National Institute for the Identification of Pharmaceuticals and Biological Products, Beijing. The breeding of the rats was the same as in test II.
The male rats each weighing 150±10 g were excised of bilateral spermaries and were fed low-calcium diet and offered deionized water for 60 days, thus made a model of osteoporosis.
Seventy of the castrated male rats were divided into groups and tested in the same manner as Test II but the days of administration were 52 days during the 60 days of test.
(§4) In this test, the measuring methods for serum Ca, P, AKP levels, the bone mineral density, the length of femur, wet weight, dry weight, ash weight, the calcium content and the biomechanics of femur were all the same as in test II.

[5] = tested on: castrated male rats with osteoporosis; details: for length of femur: model 3.26 ± 0.09; for ash weight of femur: model 187.5 ± 18.0; for calcium content of femur: model 245.1 ± 25.7; for dry weight of femur: model 360.0 ± 32.1; for wet weight of femur: model 638.3 ± 57.6
Experimental: as §3, §4

[6] = tested on: castrated male rats with osteoporosis; details: for bone mineral density F50: model-control 0.235 ± 0.022; for bone mineral density F20: model-control 0.244 ± 0.025
Text: (4) Measurement of bone mineral density.

[7] = 2.31 g/kg/d (300 mg calcium; Caltrate-D 0.65 g/kg/d)

For `O=C(O)[C@H](O)[C@@H](O)CO` [calcium L-threonate], the bone mineral density (preschool children; 2 bags/day of 150 mg element calcium, 1.5 month, before test 0.379 (threonate), 0.369 (carbonate)) was 0.424 ± 0.038 g/cm^2, the “extent of BMDs' increase” value (preschool children; 2 bags/day of 150 mg element calcium, 1.5 months) was 11.87% and the bone mineral density (preschool children; 2 bags/day of 150 mg element calcium, 3 month, before test 0.379 (threonate), 0.369 (carbonate)) was 0.467 ± 0.027 g/cm^2. The bone mineral density (preschool children; 2 bags/day of 200 mg element calcium, 1.5 month, before test 0.362 ± 0.026) was 0.414 ± 0.027 g/cm^2, the “extent of BMDs' increase” value (preschool children; 2 bags/day of 200 mg element calcium, 1.5 months) was 14.36% and the bone mineral density (preschool children; 2 bags/day of 200 mg element calcium, 3 month, before test 0.362 ± 0.026) was 0.460 ± 0.020 g/cm^2. For the same compound, the “extent of BMDs' increase” value (preschool children; 2 bags/day of 200 mg element calcium, 3 months) was 25.41%, the “fraction of children whose BMD reached the normal level” value (preschool children; after 3 months) was “about 2/3” and the “children having normal BMDs” value (preschool children; 1.5 months) was “about 12%”. For the same compound, the “children having normal BMDs” value (preschool children; 3 months) was roughly 72%, the “serum Ca” value ([1]; 100 mg element calcium/kg/d) was 1.97 ± 0.52 mmol/L and the “serum P” value ([1]; 100 mg element calcium/kg/d) was 1.87 ± 0.39 mmol/L. For the same compound, the “AKP level in serum (in Bessey-Loury unit)” value (“AKP level in serum” for short) ([1]; 100 mg element calcium/kg/d) was 88.3 ± 13.7 U/L, the “serum Ca” value ([1]; 200 mg element calcium/kg/d) was 2.20 ± 0.60 mmol/L and the “serum P” value ([1]; 200 mg element calcium/kg/d) was 1.78 ± 0.55 mmol/L. The “AKP level in serum” value ([1]; 200 mg element calcium/kg/d) was 59.2 ± 12.0 U/L, the “serum Ca” value ([1]; 300 mg element calcium/kg/d) was 2.17 ± 0.62 mmol/L and the “serum P” value ([1]; 300 mg element calcium/kg/d) was 1.48 ± 0.55 mmol/L. For the same compound, the “AKP level in serum” value ([1]; 300 mg element calcium/kg/d) was 56.1 ± 6.2 U/L, the “serum calcium effect (in words)” value ([1]; rat, in vivo) was “significantly higher than that of model group” and the “K (rigidity parameter, calcified degree)” value ([2]; 100 mg element calcium/kg/d) was 2.71 ± 0.36. For the same compound, the “Y (flexibility, tenacity)” value ([2]; 100 mg element calcium/kg/d) was 4.1 ± 0.7, the “P (maximum of force at yielding point, femur strength)” value ([2]; 100 mg element calcium/kg/d) was 7.9 ± 1.0 and the “S (work to yield or break femur)” value ([2]; 100 mg element calcium/kg/d) was 14.0. For the same compound, the “K (rigidity parameter, calcified degree)” value ([2]; 200 mg element calcium/kg/d) was 2.75 ± 0.31, the “Y (flexibility, tenacity)” value ([2]; 200 mg element calcium/kg/d) was 5.3 ± 1.4 and the “P (maximum of force at yielding point, femur strength)” value ([2]; 200 mg element calcium/kg/d) was 8.5 ± 0.8. The “Y (flexibility, tenacity)” value ([2]; 300 mg element calcium/kg/d) was 5.9 ± 1.2, the “P (maximum of force at yielding point, femur strength)” value ([2]; 300 mg element calcium/kg/d) was 9.6 ± 1.7 and the “S (work to yield or break femur)” value ([2]; 300 mg element calcium/kg/d) was 29.4. The “absorption rate constant ka” value (in vivo) was 6.14 h⁻¹, the CL/F (in vivo; po) was 17.3 mL/min/kg and the Vd/F (in vivo; po) was 6.69 L/kg. It also gave an AUC (in vivo; po, 200 mg/kg) of 192 µg·h/mL, a Cmax (in vivo; po, 200 mg/kg) of 27200 ng/mL and a half-life (in vivo; po, 200 mg/kg) of 4.45 h. For the same compound, the Tmax (in vivo; po, 200 mg/kg, Tmax) was 0.797 h, the “ash weight” value ([3]; 100 mg element calcium/kg/d) was 308.5 ± 11.4 mg and the calcium content ([3]; 100 mg element calcium/kg/d) was 387.8 ± 91.9 mg/g dry weight. The dry femur weight ([3]; 100 mg element calcium/kg/d) was 517 ± 21.8 mg, the “ash weight” value ([3]; 200 mg element calcium/kg/d) was 325.3 ± 23.5 mg and the calcium content ([3]; 200 mg element calcium/kg/d) was 455.1 mg/g dry weight. For the same compound, the dry femur weight ([3]; 200 mg element calcium/kg/d) was 553.0 ± 38.1 mg, the “ash weight” value ([3]; 300 mg element calcium/kg/d) was 332.4 ± 13.0 mg and the calcium content ([3]; 300 mg element calcium/kg/d) was 445.7 mg/g dry weight. For the same compound, the dry femur weight ([3]; 300 mg element calcium/kg/d) was 546.6 ± 22.8 mg, the “loss of bone matrix (in words)” value ([3]; rat, in vivo) was “retard the loss of bone matrix; also recorded: markedly control and inhibit the loss of bone matrix” and the “K (calcification of bone)” value ([4]; 100 mg element calcium/kg/d) was 2.05 ± 0.25. For the same compound, the “P (strength of femur)” value ([4]; 100 mg element calcium/kg/d) was 7.6 ± 1.1, the “Y (flexibility, tenacity)” value ([4]; 100 mg element calcium/kg/d) was 7.3 ± 1.6 and the “S (work to break the bone)” value ([4]; 100 mg element calcium/kg/d) was 29.7. For the same compound, the “K (calcification of bone)” value ([4]; 200 mg element calcium/kg/d) was 2.27 ± 0.42, the “P (strength of femur)” value ([4]; 200 mg element calcium/kg/d) was 8.7 ± 1.2 and the “Y (flexibility, tenacity)” value ([4]; 200 mg element calcium/kg/d) was 6.6 ± 1.1. The “S (work to break the bone)” value ([4]; 200 mg element calcium/kg/d) was 28.3, the “K (calcification of bone)” value ([4]; 300 mg element calcium/kg/d) was 2.52 ± 0.22 and the “P (strength of femur)” value ([4]; 300 mg element calcium/kg/d) was 9.3 ± 0.9. For the same compound, the “Y (flexibility, tenacity)” value ([4]; 300 mg element calcium/kg/d) was 6.3 ± 1.0, the “S (work to break the bone)” value ([4]; 300 mg element calcium/kg/d) was 28.7 ± 7.8 and the “P,K,S values (in words)” value ([4]; rat, in vivo) was “markedly increased in contrast to those of the model group rats”. For the same compound, the length of femur ([5]; 0.76 g/kg/d) was 3.34 ± 0.05 cm, the “ash weight of femur” value ([5]; 0.76 g/kg/d) was 233.1 ± 19.76 mg and the “calcium content of femur” value ([5]; 0.76 g/kg/d) was 267.0. For the same compound, the “dry weight of femur” value ([5]; 0.76 g/kg/d) was 416.7 ± 29.7 g, the “wet weight of femur” value ([5]; 0.76 g/kg/d) was 688.4 ± 47.4 g and the length of femur ([5]; 1.54 g/kg/d) was 3.34 ± 0.08 cm. The “ash weight of femur” value ([5]; 1.54 g/kg/d) was 269.66 ± 23.4 mg, the “calcium content of femur” value ([5]; 1.54 g/kg/d) was 268.2 and the “dry weight of femur” value ([5]; 1.54 g/kg/d) was 458.1 ± 39.1 g. For the same compound, the “wet weight of femur” value ([5]; 1.54 g/kg/d) was 720.2 ± 69.7 g, the length of femur [5, 7] was 3.35 ± 0.09 cm and the “ash weight of femur” value [5, 7] was 278.2 ± 31.8 mg. The “calcium content of femur” value [5, 7] was 266.7, the “dry weight of femur” value [5, 7] was 473.4 ± 57.2 g and the “wet weight of femur” value [5, 7] was 747.3 ± 95.2 g. The “femur length, weights and calcium content (in words)” value ([5]; rat, in vivo) was “markedly higher femur length, wet weight, dry weight, ash weight and calcium content than those of the model group rats”, the “bone mineral density F50” value ([6]; 100 mg element calcium/kg/d) was 0.255 ± 0.025 BMC/BW and the “bone mineral density F20” value ([6]; 100 mg element calcium/kg/d) was 0.297 ± 0.037 BMC/BW. The “bone mineral density F50” value ([6]; 200 mg element calcium/kg/d) was 0.269 ± 0.019 BMC/BW, the “bone mineral density F20” value ([6]; 200 mg element calcium/kg/d) was 0.308 ± 0.020 BMC/BW and the “bone mineral density F50” value ([6]; 300 mg element calcium/kg/d) was 0.274 ± 0.018 BMC/BW. The “bone mineral density F20” value ([6]; 300 mg element calcium/kg/d) was 0.327 ± 0.033 BMC/BW.
